Like-named read-outs stand apart in the source and are kept apart here. Square brackets hold non-standard residues; d marks the D form. Peptide text beside a SMILES is read from it. Nspe = C[C@H](NCC(=O)O)c1ccccc1; Nphe = O=C(O)CNCc1ccccc1; Nlys = NCCCCNCC(=O)O

Here are results for 8 compounds from patent US8940331B2, “Hydrogels, methods of making hydrogels, methods of using hydrogels, and methods of isolating, trapping, attracting, and/or killing cancer cells” (The Board of Trustees of the Leland Stanford Junior …, priority 2008, dated 2015).

A short description of data set [1]: MTS cell viability assay, primary dermal fibroblasts. In kind it is cell-based. To be noted: MTS assay, cells treated 24 h; concentration causing 50% cell death; read-out: LC50 Primary dermal fibroblast. The procedure:
(§1) A library of cationic, amphipathic peptoid oligomers (“capetoids”) with various chain lengths, charges, helicity, hydrophobicity and amphipathicity have been synthesized. Their activities towards several in vitro cultured cancer cell lines were tested via MTS assays. Primary dermal fibroblasts and freshly isolated red blood cells were also tested to estimate their biosafety. […] In some concentration ranges, these peptoids kill cancer cells efficiently while being relatively safe to primary dermal fibroblasts. […] Furthermore, the actions of these peptoids were not affected by the known multidrug resistance. In MCF 7 cells and the multidrug resistant MCF 7 cells (kindly provided by Prof. Brandy Sikic at Stanford) which overexpress P-glycoproteins, these peptoids had similar cytotoxicities.

Another data set has as its system human RBCs. In kind it is cell-based. The procedure:
as §1

Data set [2] is classed as cell-based. Particulars: MTS assay, cells treated 24 h, concentration causing 50% cell death. The procedure:
as §1
For orientation: Tetrazolium assays rely on reduction of a dye to a coloured formazan, in cell work by metabolically active cells.

Another data set concerns breast cancer cells. In words: In vitro chemotaxis transwell assay. In kind it is cell-based. The source says: Different chemoattractants can be chosen with regard to the cancer types of interest. As an example, Table 2 summarizes chemoattractant candidates for breast cancer. The efficacies and dosages of chemoattractants are being characterized by in vitro chemotaxis assays. The chemotactic effects of an important candidate, stromal cell-derived factor 1 (SDF-1), have been confirmed in vitro using the transwell assay.

The subject of data set [3] is Primary dermal fibroblast. In words: MTS cell viability assay, primary dermal fibroblasts. In kind it is cell-based. To be noted: in vitro; data not shown. The procedure: as §1
Where [4] appears, read: read-out: LC50 Lncap (prostate cancer).
Where [5] appears, read: read-out: LC50 MCF7 (breast cancer).
Where [6] appears, read: read-out: LC50 MEL28 (Melanoma).
The mark [7] stands for this setting: read-out: LC50 Ovcar3 (ovarian cancer).

`C[C@@H](c1ccccc1)N(CC(N)=O)C(=O)CN(C(=O)CN(CCCCN)C(=O)CN(Cc1ccccc1)C(=O)CN(Cc1ccccc1)C(=O)CN(CCCCN)C(=O)CN(C(=O)CN(C(=O)CN(CCCCN)C(=O)CN(Cc1ccccc1)C(=O)CN(Cc1ccccc1)C(=O)CNCCCCN)[C@@H](C)c1ccccc1)[C@@H](C)c1ccccc1)[C@@H](C)c1ccccc1` [1-Npm2,3,8,9, H-(NLys-Npm-Npm-NLys-Nspe-Nspe)2-NH2]: the CC50 amounted to 18.5 µM in data set [1]; 10.5 µM in data set [2] (setting [4]); 10 µM in data set [2] (setting [5]); 16.5 µM in data set [2] (setting [6]); 11 µM in data set [2] (setting [7]). This compound also registered an HC10 Red blood cells in the data set with human RBCs of 80 µM.

Take stromal cell-derived factor 1 [SDF-1]: in the data set on breast cancer cells, the Chemotactic effects result is “confirmed”.

With `NCCCCNCC(=O)N(CC(=O)N(CC(=O)N(CCCCN)CC(=O)N(CC(=O)N(CC(=O)N(CCCCN)CC(=O)N(CC(=O)N(CC(=O)N(CCCCN)CC(=O)N(CC(=O)N(CC(N)=O)Cc1ccccc1)Cc1ccccc1)Cc1ccccc1)Cc1ccccc1)Cc1ccccc1)Cc1ccccc1)Cc1ccccc1)Cc1ccccc1` [Peptoid 1achiral, H-(NLys-Npm-Npm)4-NH2] (H-[Nlys][Nphe][Nphe][Nlys][Nphe][Nphe][Nlys][Nphe][Nphe][Nlys][Nphe][Nphe]-NH2), the CC50 in data set [1] was 39.5 µM; in data set [2] (setting [4]) it was 10.5 µM; in data set [2] (setting [5]) it was 15 µM; in data set [2] (setting [6]), 18.5 µM; in data set [2] (setting [7]), 16 µM. In the data set with human RBCs, the HC10 Red blood cells amounted to 183 µM.

`COc1cccc2c1C(=O)c1c(O)c3c(c(O)c1C2=O)C[C@@](O)(C(=O)CO)C[C@@H]3O[C@H]1C[C@H](N)[C@H](O)[C@H](C)O1` [Doxorubicin, reference compound]: the “Killing of primary fibroblasts compared with cancer cell lines” value in data set [3] was “killed primary fibroblasts as efficiently as cancer cell lines”.

As to `C[C@@H](c1ccccc1)N(CC(N)=O)C(=O)CN(CCCCN)C(=O)CN(C(=O)CN(C(=O)CN(CCCCN)C(=O)CN(C(=O)CN(C(=O)CN(CCCCN)C(=O)CN(C(=O)CN(C(=O)CNCCCCN)[C@@H](C)c1ccccc1)[C@@H](C)c1ccccc1)[C@@H](C)c1ccccc1)[C@@H](C)c1ccccc1)[C@@H](C)c1ccccc1)[C@@H](C)c1ccccc1` [Peptoid 111mer, H-(NLys-Nspe-Nspe)3-NLys-Nspe-NH2] (H-[Nlys][Nspe][Nspe][Nlys][Nspe][Nspe][Nlys][Nspe][Nspe][Nlys][Nspe]-NH2), the CC50 in data set [1] amounted to 18.5 µM; in data set [2] (setting [4]) it was 8 µM; in data set [2] (setting [5]), 9 µM; in data set [2] (setting [6]), 15 µM; in data set [2] (setting [7]) it was 10.5 µM. In the data set with human RBCs, this compound registered an HC10 Red blood cells of 103 µM.

Consider `C[C@@H](c1ccccc1)N(CC(=O)N(CC(=O)N(CCCCN)CC(=O)N(CC(=O)N(CC(=O)N(CCCCN)CC(=O)N(CC(=O)N(CC(=O)N(CCCCN)CC(=O)N(CC(=O)N(CC(N)=O)Cc1ccccc1)Cc1ccccc1)Cc1ccccc1)Cc1ccccc1)Cc1ccccc1)Cc1ccccc1)Cc1ccccc1)C(=O)CNCCCCN` [1achiral-Nspe 2, H-NLys-Nspe-Npm-(NLys-Npm-Npm)3-NH2] (H-[Nlys][Nspe][Nphe][Nlys][Nphe][Nphe][Nlys][Nphe][Nphe][Nlys][Nphe][Nphe]-NH2), for which the CC50 is 36.5 µM in data set [1]; 8.5 µM in data set [2] (setting [4]); 14.5 µM in data set [2] (setting [5]); 18 µM in data set [2] (setting [6]); 15.5 µM in data set [2] (setting [7]). In the data set on human RBCs, this compound returned an HC10 Red blood cells of 160 µM.

With `C[C@@H](c1ccccc1)N(CC(N)=O)C(=O)CN(C(=O)CN(CCCCN)C(=O)CN(C(=O)CN(C(=O)CN(CCCCN)C(=O)CN(C(=O)CN(C(=O)CN(CCCCN)C(=O)CN(C(=O)CN(C(=O)CNCCCCN)[C@@H](C)c1ccccc1)[C@@H](C)c1ccccc1)[C@@H](C)c1ccccc1)[C@@H](C)c1ccccc1)[C@@H](C)c1ccccc1)[C@@H](C)c1ccccc1)[C@@H](C)c1ccccc1` [Peptoid 1, H-(NLys-Nspe-Nspe)4-NH2] (H-[Nlys][Nspe][Nspe][Nlys][Nspe][Nspe][Nlys][Nspe][Nspe][Nlys][Nspe][Nspe]-NH2), the CC50 was found to be 5 µM in data set [1]; 5 µM in data set [2] (setting [4]); 4.5 µM in data set [2] (setting [5]); 5 µM in data set [2] (setting [6]); 6.5 µM in data set [2] (setting [7]). In addition, the “HC10 Red blood cells” value in the data set on human RBCs (concentration causing 10% hemolysis of human RBCs) amounted to 21000 µM.

For `CC(=O)O[C@@]12CO[C@@H]1C[C@H](O)[C@@]1(C)C(=O)[C@H](O)C3=C(C)[C@@H](OC(=O)[C@H](O)[C@@H](NC(=O)OC(C)(C)C)c4ccccc4)C[C@@](O)([C@@H](OC(=O)c4ccccc4)[C@H]21)C3(C)C` [docetaxel, reference compound], the “Killing of primary fibroblasts compared with cancer cell lines” value in data set [3] is “killed primary fibroblasts as efficiently as cancer cell lines”.
